Test results taken from patent publication US8530648B2, “Diaza-spiro[5.5]undecanes” (Novartis AG, priority 2009, dated 2013).

Key:
hOx2R = hOx2R (Homo sapiens (Human), UniProt O43614); test: Calcium accumulation in cells (FLIPR), hOx2R; type: cell-based; settings: for Ki: inhibition of orexin A induced calcium accumulation, Cheng and Prusoff correction; for inhibition at 10 µM: measured at a concentration of 10 μM of compound
Outline: (§1)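 Cells expressing human orexin 1 or 2 receptor, serum-deprived overnight, loaded with Fluo-4-AM (2 μM) plus 0.1 mM probenecid, pH 7.4 HEPES buffer with 1% BSA.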

hOx1R = hOx1R (Homo sapiens (Human), UniProt O43613); test: Calcium accumulation in cells (FLIPR), hOx1R; type: cell-based; settings: for Ki: inhibition of orexin A induced calcium accumulation, Cheng and Prusoff correction; for inhibition at 10 µM: measured at a concentration of 10 μM of compound
Outline: as §1

Sequence of hOx2R (O43614 whole entry): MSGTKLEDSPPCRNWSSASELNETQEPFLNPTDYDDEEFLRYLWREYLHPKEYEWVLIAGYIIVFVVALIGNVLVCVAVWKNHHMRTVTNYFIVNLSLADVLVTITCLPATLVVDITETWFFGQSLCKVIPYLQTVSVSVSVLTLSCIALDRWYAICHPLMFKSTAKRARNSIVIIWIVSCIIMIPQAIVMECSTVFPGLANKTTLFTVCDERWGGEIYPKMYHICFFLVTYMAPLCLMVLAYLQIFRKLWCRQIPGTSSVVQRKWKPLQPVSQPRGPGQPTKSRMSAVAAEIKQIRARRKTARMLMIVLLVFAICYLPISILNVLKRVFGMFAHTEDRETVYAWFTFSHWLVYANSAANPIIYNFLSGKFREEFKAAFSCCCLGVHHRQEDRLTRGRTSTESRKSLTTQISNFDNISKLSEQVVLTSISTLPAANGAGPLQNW
Sequence of hOx1R (O43613 whole entry): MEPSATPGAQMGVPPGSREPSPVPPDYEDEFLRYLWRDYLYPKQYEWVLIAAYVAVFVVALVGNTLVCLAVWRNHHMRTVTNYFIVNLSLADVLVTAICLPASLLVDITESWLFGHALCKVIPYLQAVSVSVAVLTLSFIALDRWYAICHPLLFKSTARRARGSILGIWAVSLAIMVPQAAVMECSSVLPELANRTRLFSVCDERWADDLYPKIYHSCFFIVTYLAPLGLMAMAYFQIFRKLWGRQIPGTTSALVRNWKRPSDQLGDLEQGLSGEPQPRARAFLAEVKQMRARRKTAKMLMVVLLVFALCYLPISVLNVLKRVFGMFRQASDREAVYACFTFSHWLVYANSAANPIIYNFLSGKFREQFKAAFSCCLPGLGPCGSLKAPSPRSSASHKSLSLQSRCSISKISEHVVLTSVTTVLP

Ki (hOx2R) | Ki (hOx1R) | inhibition at 10 µM (hOx2R) | inhibition at 10 µM (hOx1R) | SMILES
125 nM | 700 nM |  |  | O=C1N(Cc2cc(F)cc3c2OCOC3)CCCC12CCN(c1cnc3ccccc3n1)CC2 [Example 120, 2-((6-fluoro-4H-benzo[d][1,3]dioxin-8-yl)methyl)-9-(quinoxalin-2-yl)-2,9-diazaspiro[5.5]undecan-1-one]
282 nM | 1700 nM |  |  | N#Cc1cc(CN2CCCC3(CCN(c4cnc5ccccc5n4)CC3)C2=O)ccc1F [Example 94, 2-fluoro-5-((1-oxo-9-(quinoxalin-2-yl)-2,9-diazaspiro[5.5]undecan-2-yl)methyl)benzonitrile]
555 nM | 3180 nM |  |  | O=C1N(Cc2cccc3c2OCCN3)CCCC12CCN(c1cnc3ccccc3n1)CC2 [Example 132, 2-((3,4-dihydro-2H-benzo[b][1,4]oxazin-8-yl)methyl)-9-(quinoxalin-2-yl)-2,9-diazaspiro[5.5]undecan-1-one]
649 nM | 3060 nM |  |  | N#Cc1cccc(CN2CCCC3(CCN(c4cnc5ccccc5n4)CC3)C2=O)c1 [Example 92, 3-((1-oxo-9-(quinoxalin-2-yl)-2,9-diazaspiro[5.5]undecan-2-yl)methyl)benzonitrile]
483 nM |  |  | 23% | Cc1ccc2[nH]c(N3CCC4(CCCN(Cc5c[nH]c6ccccc56)C4=O)CC3)nc2c1 [Example 163, 2-((1H-indol-3-yl)methyl)-9-(5-methyl-1H-benzo[d]imidazol-2-yl)-2,9-diazaspiro[5.5]undecan-1-one]

Second part, the compound before the results:

SMILES | Ki (hOx2R) | Ki (hOx1R) | inhibition at 10 µM (hOx2R) | inhibition at 10 µM (hOx1R)
O=C1N(Cc2cccc(-c3ccncc3)c2)CCCC12CCN(c1cnc3ccccc3n1)CC2 [Example 58, 2-(3-(pyridin-4-yl)benzyl)-9-(quinoxalin-2-yl)-2,9-diazaspiro[5.5]undecan-1-one] | 217 nM | 570 nM |  | 
Cn1cc(-c2ccccc2CN2CCCC3(CCN(c4cnc5ccccc5n4)CC3)C2=O)cn1 [Example 51, 2-(2-(1-methyl-1H-pyrazol-4-yl)benzyl)-9-(quinoxalin-2-yl)-2,9-diazaspiro[5.5]undecan-1-one] |  |  | 32% | 57%
O=C1N(Cc2noc(C3CCC3)n2)CCCC12CCN(c1cnc3ccccc3n1)CC2 [Example 89, 2-((5-cyclobutyl-1,2,4-oxadiazol-3-yl)methyl)-9-(quinoxalin-2-yl)-2,9-diazaspiro[5.5]undecan-1-one] |  |  | 24% | 29%
O=C1N(Cc2cccc(-n3cccc3)c2)CCCC12CCN(c1cnc3ccccc3n1)CC2 [Example 35, 2-(3-(1H-pyrrol-1-yl)benzyl)-9-(quinoxalin-2-yl)-2,9-diazaspiro[5.5]undecan-1-one] | 272 nM |  |  | 26%
O=C1N(Cc2c[nH]c3ccccc23)CCCC12CCN(c1nc3ccccc3o1)CC2 [Example 40, 2-((1H-indol-3-yl)methyl)-9-(benzo[d]oxazol-2-yl)-2,9-diazaspiro[5.5]undecan-1-one] | 98 nM | 1020 nM |  | 
Cc1cc(CN2CCCC3(CCN(c4cnc5ccccc5n4)CC3)C2=O)nn1C [Example 84, 2-((1,5-dimethyl-1H-pyrazol-3-yl)methyl)-9-(quinoxalin-2-yl)-2,9-diazaspiro[5.5]undecan-1-one] |  |  | 46% | 40%
Cc1noc(-c2ccccc2)c1CN1CCCC2(CCN(c3cnc4ccccc4n3)CC2)C1=O [Example 32, 2-((3-methyl-5-phenylisoxazol-4-yl)methyl)-9-(quinoxalin-2-yl)-2,9-diazaspiro[5.5]undecan-1-one] | 138 nM | 1280 nM |  | 
O=C1N(Cc2ccnc(Br)c2)CCCC12CCN(c1cnc3ccccc3n1)CC2 [Example 72, 2-((2-bromopyridin-4-yl)methyl)-9-(quinoxalin-2-yl)-2,9-diazaspiro[5.5]undecan-1-one] | 452 nM | 3100 nM |  | 
Cn1ccc2c(CN3CCCC4(CCN(c5cnc6ccccc6n5)CC4)C3=O)cccc21 [Example 26, 2-((1-methyl-1H-indol-4-yl)methyl)-9-(quinoxalin-2-yl)-2,9-diazaspiro[5.5]undecan-1-one] | 168 nM | 614 nM |  | 
